Earlier results as cited in patent US20160271121A1, “ANTIFUNGAL COMBINATION THERAPY” (Gavis Pharmaceuticals, priority 2015, published 2016).

Key:
onychomycosis = conditions: 48 weeks of topical efinaconazole
reference strains = conditions: in vitro, versus other antifungals

Compound: C=C1CCN([C@H](C)[C@](O)(Cn2cncn2)c2ccc(F)cc2F)CC1 [Efinaconazole, (2R,3R)-2-(2,4-difluorophenyl)-3-(4-methylenepiperidin-1-yl)-1-(1H-1,2,4-triazol-1-yl)butan-2-ol]
- mycological cure rate compared with other antifungal agents (onychomycosis): more than that for 48 weeks of topical ciclopirox and comparable to 12 weeks of oral itraconazole
- potency in broth dilution tests (reference strains): more potent than terbinafine, ciclopirox, itraconazole, and amorolfine
